Test results reported in patent US20240150848A1, “METHODS AND SYSTEMS FOR DIAGNOSIS, CLASSIFICATION, AND TREATMENT OF SMALL CELL LUNG CANCER AND OTHER HIGH-GRADE NEUROENDOCRINE CARCINOMAS” (BOARD OF REGENTS, THE UNIVERSITY OF TEXAS SYSTEM, priority 2021, published 2024).

Test system: SCLC-A and SCLC-N cell lines
Assay: Comparison of IC50 values between cell lines assigned to SCLC-A and SCLC-N by the methylation classifier (SCLC-DMC)
Type: cell-based
From the text: FIGS. 22A-22D show comparison of IC50 values for the BCL2i ABT-737 (FIG. 22A) and the AURKi CYC-116 (FIG. 22B) between cell lines assigned to SCLC-A and SCLC-N using SCLC-DMC. Clinical outcome depending on classification method used. Overall survival of ES-SCLC patients stratified by classification using the RNAseq signature or SCLC-DMC for SCLC-A (FIG. 22C) and SCLC-N(FIG. 22D). The box plot is highlighting the median as well as the 25th and 75th percentile in the box extended by 1.5× the IQR with bars. […] To validate that these same vulnerabilities are preserved using the methylation classifier (FIG. 30), the inventors compared IC50 values for over 400 drugs^24 between methylation-assigned SCLC-A and SCLC-N subtypes and identified numerous distinct vulnerabilities between the groups.

Row | sensitivity by comparison of IC50 values (methylation-assigned SCLC-A cell lines compared with SCLC-N cell lines (FIG. 22A)) | sensitivity by comparison of IC50 values (methylation-assigned SCLC-N cell lines compared with SCLC-A cell lines (FIG. 22B)) | Compound
1 | more sensitive |  | CN(C)CC[C@H](CSc1ccccc1)Nc1ccc(S(=O)(=O)NC(=O)c2ccc(N3CCN(Cc4ccccc4-c4ccc(Cl)cc4)CC3)cc2)cc1[N+](=O)[O-] [ABT-737]
2 |  | more sensitive | Cc1nc(N)sc1-c1ccnc(Nc2ccc(N3CCOCC3)cc2)n1 [CYC-116]
